The source made the active and inactive calls. The calls are words filed in the database; no cut-off is given here.
Legend:
[1] = molecular target: T1, Lysine-specific demethylase 4E (Homo sapiens) (UniProt B2RXH2); assay: Inhibition of purified recombinant KDM4E (1 to 347 aa) (unknown origin) expressed in Escherichia coli using H3K9me3 peptide as substrate after 30 mins by FDH-coupled assay
T1 sequence (whole entry): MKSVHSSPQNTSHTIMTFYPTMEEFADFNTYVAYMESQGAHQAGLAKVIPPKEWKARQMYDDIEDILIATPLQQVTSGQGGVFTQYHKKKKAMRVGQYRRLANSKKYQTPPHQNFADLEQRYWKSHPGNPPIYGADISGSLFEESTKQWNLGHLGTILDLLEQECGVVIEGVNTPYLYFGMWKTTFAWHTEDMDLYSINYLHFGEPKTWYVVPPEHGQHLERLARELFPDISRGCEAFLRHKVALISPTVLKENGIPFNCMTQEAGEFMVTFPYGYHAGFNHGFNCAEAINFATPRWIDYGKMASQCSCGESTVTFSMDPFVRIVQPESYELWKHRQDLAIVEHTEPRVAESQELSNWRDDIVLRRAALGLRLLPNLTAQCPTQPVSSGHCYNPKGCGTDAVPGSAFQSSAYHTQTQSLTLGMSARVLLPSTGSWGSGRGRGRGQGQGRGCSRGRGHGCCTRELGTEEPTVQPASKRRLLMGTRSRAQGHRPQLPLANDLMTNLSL

LNCaP = assay: Cytotoxicity against human LNCAP cells after 3 days by MTT assay; assay type: functional, cell-based; details: 72 h
[2] = molecular target: T2, Lysine-specific demethylase 4D (Homo sapiens) (UniProt Q6B0I6); assay: Inhibition of purified recombinant KDM4D (1 to 350 aa) (unknown origin) expressed in Escherichia coli using H3K9me3 peptide as substrate after 30 mins by FDH-coupled assay
T2 sequence (whole entry): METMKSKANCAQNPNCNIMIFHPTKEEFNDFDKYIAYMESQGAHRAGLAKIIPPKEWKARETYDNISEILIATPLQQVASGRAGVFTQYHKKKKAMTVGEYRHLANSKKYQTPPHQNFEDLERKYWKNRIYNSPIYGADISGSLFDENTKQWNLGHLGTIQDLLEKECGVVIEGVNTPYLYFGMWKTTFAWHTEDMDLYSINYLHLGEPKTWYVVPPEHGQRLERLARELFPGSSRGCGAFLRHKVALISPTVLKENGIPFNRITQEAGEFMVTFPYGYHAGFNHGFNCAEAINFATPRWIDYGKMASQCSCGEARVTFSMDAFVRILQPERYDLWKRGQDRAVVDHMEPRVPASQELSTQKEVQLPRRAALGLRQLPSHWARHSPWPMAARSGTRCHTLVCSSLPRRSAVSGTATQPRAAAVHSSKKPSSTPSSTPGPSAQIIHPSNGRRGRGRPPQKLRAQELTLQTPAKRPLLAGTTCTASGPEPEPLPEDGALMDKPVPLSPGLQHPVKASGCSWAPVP

[3] = Cytotoxicity against human PNT2 cells at 5 to 20 uM measured over 6 days by MTT assay; assay type: cell-based; details: pnt2, 144 h

SMILES | inhibition [1] | CC50 (LNCaP) | inhibition [2] | Activity [3]
O=C(O)c1ccnc(C(=O)O)c1 | Active | 589 µM | Active | –
O=[N+]([O-])c1cc([N+](=O)[O-])c(/C=C/c2ccc(Cl)c(Cl)c2)cc1/C=C/c1ccc(Cl)c(Cl)c1 | inactive | – | inactive | Non-toxic
